For orientation: EC50 means the concentration giving half of the maximal effect.

Here are results for 22 compounds from patent publication US12227496B2 (BRISTOL-MYERS SQUIBB COMPANY, priority 2019, dated 2025).

For this assay, the target named is T1, human FXR (Homo sapiens, UniProt Q96RI1).
T1 construct: expressed in transfected cells; host or cells: HEK293 cells stably carrying a 5xGal4-response-element firefly luciferase reporter, transiently transfected with pcDNA3.1-Gal4-FXR
T1 sequence (Q96RI1 262-486 limits assumed): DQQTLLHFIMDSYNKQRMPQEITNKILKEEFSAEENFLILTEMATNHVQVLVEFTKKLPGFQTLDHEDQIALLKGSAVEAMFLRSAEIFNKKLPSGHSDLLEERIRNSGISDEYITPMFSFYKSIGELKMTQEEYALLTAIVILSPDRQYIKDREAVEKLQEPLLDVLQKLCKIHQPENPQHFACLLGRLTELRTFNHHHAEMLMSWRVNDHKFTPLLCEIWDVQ
Nature of the assay: transient human FXR/Gal4-luciferase reporter assay. Type of assay: cell-based. The settings on record: Gal4-hFXR LBD fusion, luciferase reporter in HEK293 cells; response relative to 8 μM GW-4064. The essentials: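 HEK293 cells stably carrying a 5×Gal4-response-element firefly luciferase reporter were transiently transfected with Gal4-hFXR. They were then incubated overnight at 37 °C with compound serial dilutions in medium containing 10% charcoal/dextran-stripped FBS. Luminescence was read after Steady-Glo addition.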
For orientation: A reporter such as luciferase makes a cellular process visible.
Turning to `CN1CCC(C(=O)N(CC23CCC(c4cc(C5CC5)nn4C)(CC2)CC3)c2cccc(-c3ccc(S(C)(=O)=O)cc3)c2)CC1` [Example 136, N-((4-(3-cyclopropyl-1-methyl-1H-pyrazol-5-yl)bicyclo[2.2.2]octan-1-yl)methyl)-1-methyl-N-(4′-(methylsulfonyl)-[1,1′-biphenyl]-3-yl)piperidine-4-carboxamide], the response was half-maximal at 4000 nM (EC50).
The result for `Cc1nc2ccc(-c3cccc(N(CC45CCC(c6cc(C7CC7)nn6C)(CC4)CC5)C(=O)C4CCC(F)(F)CC4)c3)cc2s1` [Example 137, N-((4-(3-cyclopropyl-1-methyl-1H-pyrazol-5-yl)bicyclo[2.2.2]octan-1-yl)methyl)-4,4-difluoro-N-(3-(2-methylbenzo[d]thiazol-6-yl)phenyl)cyclohexane-1-carboxamide] reads 449 nM.
The result for `Cn1nc(C2CC2)cc1C12CCC(CN(C(=O)C3CCS(=O)(=O)CC3)c3cccc(-c4cc(C5CC5)no4)c3)(CC1)CC2` [Example 138, N-((4-(3-cyclopropyl-1-methyl-1H-pyrazol-5-yl)bicyclo[2.2.2]octan-1-yl)methyl)-N-(3-(3-cyclopropylisoxazol-5-yl)phenyl)tetrahydro-2H-thiopyran-4-carboxamide 1,1-dioxide] reads 1580 nM; that for `Cn1nc(C2CC2)cc1C12CCC(CN(C(=O)C3CCOCC3)c3cccc(-c4cc(C5CC5)no4)c3)(CC1)CC2` [Example 139, N-((4-(3-cyclopropyl-1-methyl-1H-pyrazol-5-yl)bicyclo[2.2.2]octan-1-yl)methyl)-N-(3-(3-cyclopropylisoxazol-5-yl)phenyl)tetrahydro-2H-pyran-4-carboxamide], 87 nM; that for `CN1CCC(C(=O)N(CC23CCC(c4cc(C5CC5)nn4C)(CC2)CC3)c2cccc(-c3cc(C4CC4)no3)c2)CC1` [Example 140, N-((4-(3-cyclopropyl-1-methyl-1H-pyrazol-5-yl)bicyclo[2.2.2]octan-1-yl)methyl)-N-(3-(3-cyclopropylisoxazol-5-yl)phenyl)-1-methylpiperidine-4-carboxamide], 2640 nM.
The same measure for `CC(C)(C)c1noc(C23CCC(CN(C(=O)C4CCC(F)(F)CC4)c4cccc(-c5cnn6cc(Cl)cnc56)c4)(CC2)CC3)n1` [Example 141, N-((4-(3-(tert-butyl)-1,2,4-oxadiazol-5-yl)bicyclo[2.2.2]octan-1-yl)methyl)-N-(3-(6-chloropyrazolo[1,5-a]pyrimidin-3-yl)phenyl)-4,4-difluorocyclohexane-1-carboxamide]: 549 nM; for `Cc1cn(-c2cccc(N(CC34CCC(c5nc(C(C)(C)C)no5)(CC3)CC4)C(=O)C3CCC(F)(F)CC3)c2)cn1` [Example 142, N-((4-(3-(tert-butyl)-1,2,4-oxadiazol-5-yl)bicyclo[2.2.2]octan-1-yl)methyl)-4,4-difluoro-N-(3-(4-methyl-1H-imidazol-1-yl)phenyl)cyclohexane-1-carboxamide]: 721 nM; for `CCOc1ncc(-c2cccc(N(CC34CCC(c5noc(C(C)(C)F)n5)(CC3)CC4)C(=O)c3ccc(OC)cc3)c2)cn1` [Example 143, N-(3-(2-ethoxypyrimidin-5-yl)phenyl)-N-((4-(5-(2-fluoropropan-2-yl)-1,2,4-oxadiazol-3-yl)bicyclo[2.2.2]octan-1-yl)methyl)-4-methoxybenzamide]: 202 nM.
`CCOc1ncc(-c2cccc(N(CC34CCC(c5noc(C(C)(C)F)n5)(CC3)CC4)C(=O)c3ccc(OC(F)F)cc3)c2)cn1` [Example 144, 4-(difluoromethoxy)-N-(3-(2-ethoxypyrimidin-5-yl)phenyl)-N-((4-(5-(2-fluoropropan-2-yl)-1,2,4-oxadiazol-3-yl)bicyclo[2.2.2]octan-1-yl)methyl)benzamide] yielded a half-maximal effective concentration (EC50) of 334 nM.
The same measure for `CC(C)(C)c1noc(C23CCC(CN(C(=O)C4CCC(F)(F)CC4)c4cccc(-c5cc(C6CC6)no5)c4)(CC2)CC3)n1` [Example 147, N-((4-(3-(tert-butyl)-1,2,4-oxadiazol-5-yl)bicyclo[2.2.2]octan-1-yl)methyl)-N-(3-(3-cyclopropylisoxazol-5-yl)phenyl)-4,4-difluorocyclohexane-1-carboxamide]: 205 nM.
As to `CC(C)(C)c1nc(C23CCC(CN(C(=O)C4CCC(F)(F)CC4)c4cccc(-c5cc(C6CC6)no5)c4)(CC2)CC3)no1` [Example 148, N-((4-(5-(tert-butyl)-1,2,4-oxadiazol-3-yl)bicyclo[2.2.2]octan-1-yl)methyl)-N-(3-(3-cyclopropylisoxazol-5-yl)phenyl)-4,4-difluorocyclohexane-1-carboxamide], it took 107 nM to reach a half-maximal effect (EC50).
The same measure for `O=C(C1CCC(F)(F)CC1)N(CC12CCC(c3noc(C4(C(F)(F)F)CC4)n3)(CC1)CC2)c1cccc(-c2cc(C3CC3)no2)c1` [Example 149, N-(3-(3-cyclopropylisoxazol-5-yl)phenyl)-4,4-difluoro-N-((4-(5-(1-(trifluoromethyl)cyclopropyl)-1,2,4-oxadiazol-3-yl)bicyclo[2.2.2]octan-1-yl)methyl)cyclohexane-1-carboxamide]: 78 nM; for `CC(F)(F)c1nc(C23CCC(CN(C(=O)C4CCC(F)(F)CC4)c4cccc(-c5cc(C6CC6)no5)c4)(CC2)CC3)no1` [Example 150, N-(3-(3-cyclopropylisoxazol-5-yl)phenyl)-N-((4-(5-(1,1-difluoroethyl)-1,2,4-oxadiazol-3-yl)bicyclo[2.2.2]octan-1-yl)methyl)-4,4-difluorocyclohexane-1-carboxamide]: 38 nM; for `O=C(C1CCC(F)(F)CC1)N(CC12CCC(c3nc(C4CC4)no3)(CC1)CC2)c1cccc(-c2cc(C3CC3)no2)c1` [Example 151, N-((4-(3-cyclopropyl-1,2,4-oxadiazol-5-yl)bicyclo[2.2.2]octan-1-yl)methyl)-N-(3-(3-cyclopropylisoxazol-5-yl)phenyl)-4,4-difluorocyclohexane-1-carboxamide]: 38 nM.
The same measure for `O=C(C1CCS(=O)(=O)CC1)N(CC12CCC(c3nc(C4CC4)no3)(CC1)CC2)c1cccc(-c2cc(C3CC3)no2)c1` [Example 152, N-((4-(3-cyclopropyl-1,2,4-oxadiazol-5-yl)bicyclo[2.2.2]octan-1-yl)methyl)-N-(3-(3-cyclopropylisoxazol-5-yl)phenyl)tetrahydro-2H-thiopyran-4-carboxamide 1,1-dioxide]: 662 nM; for `O=C(C1CCOCC1)N(CC12CCC(c3nc(C4CC4)no3)(CC1)CC2)c1cccc(-c2cc(C3CC3)no2)c1` [Example 153, N-((4-(3-cyclopropyl-1,2,4-oxadiazol-5-yl)bicyclo[2.2.2]octan-1-yl)methyl)-N-(3-(3-cyclopropylisoxazol-5-yl)phenyl)tetrahydro-2H-pyran-4-carboxamide]: 57 nM; for `CC(F)(F)c1nc(C23CCC(CN(C(=O)C4CCC(F)(F)CC4)c4cccc(-c5cc(C6CC6)on5)c4)(CC2)CC3)no1` [Example 154, N-(3-(5-cyclopropylisoxazol-3-yl)phenyl)-N-((4-(5-(1,1-difluoroethyl)-1,2,4-oxadiazol-3-yl)bicyclo[2.2.2]octan-1-yl)methyl)-4,4-difluorocyclohexane-1-carboxamide]: 57 nM.
The same measure for `CC(F)(F)c1nc(C23CCC(CN(C(=O)C4CCS(=O)(=O)CC4)c4cccc(-c5cc(C6CC6)on5)c4)(CC2)CC3)no1` [Example 155, N-(3-(5-cyclopropylisoxazol-3-yl)phenyl)-N-((4-(5-(1,1-difluoroethyl)-1,2,4-oxadiazol-3-yl)bicyclo[2.2.2]octan-1-yl)methyl)tetrahydro-2H-thiopyran-4-carboxamide 1,1-dioxide]: 289 nM; for `CC(F)(F)c1nc(C23CCC(CN(C(=O)C4CCOCC4)c4cccc(-c5cc(C6CC6)on5)c4)(CC2)CC3)no1` [Example 156, N-(3-(5-cyclopropylisoxazol-3-yl)phenyl)-N-((4-(5-(1,1-difluoroethyl)-1,2,4-oxadiazol-3-yl)bicyclo[2.2.2]octan-1-yl)methyl)tetrahydro-2H-pyran-4-carboxamide]: 44 nM.
For `CC(F)(F)c1nc(C23CCC(CN(C(=O)C4CCC(O)(C(F)(F)F)CC4)c4cccc(-c5cc(C6CC6)on5)c4)(CC2)CC3)no1` (stereo not shown) [Example 157, N-(3-(5-cyclopropylisoxazol-3-yl)phenyl)-N-((4-(5-(1,1-difluoroethyl)-1,2,4-oxadiazol-3-yl)bicyclo[2.2.2]octan-1-yl)methyl)-4-hydroxy-4-(trifluoromethyl)cyclohexane-1-carboxamide], it took 242 nM to reach a half-maximal effect (EC50).
The same measure for `CC(F)(F)c1nc(C23CCC(CN(C(=O)C4CCC(O)(C(F)(F)F)CC4)c4cccc(-c5cc(C6CC6)on5)c4)(CC2)CC3)no1` (stereo not shown) [Example 158, N-(3-(5-cyclopropylisoxazol-3-yl)phenyl)-N-((4-(5-(1,1-difluoroethyl)-1,2,4-oxadiazol-3-yl)bicyclo[2.2.2]octan-1-yl)methyl)-4-hydroxy-4-(trifluoromethyl)cyclohexane-1-carboxamide]: 195 nM.
The same measure for `CC(C)(C)c1noc(C23CCC(CN(C(=O)C4CCC(F)(F)CC4)c4cccc(-c5cc(C6CC6)on5)c4)(CC2)CC3)n1` [Example 159, N-((4-(3-(tert-butyl)-1,2,4-oxadiazol-5-yl)bicyclo[2.2.2]octan-1-yl)methyl)-N-(3-(5-cyclopropylisoxazol-3-yl)phenyl)-4,4-difluorocyclohexane-1-carboxamide]: 78 nM.
